Test results reported in publication PMC8772941 (Biomedicines, 2021).
Where two headings read alike, the source gives them in different places. Marks after values point to notes of the source that are not given here.

How the values were obtained:
[1] = test system: WT D2R; parameters: method as in PMID 29325769; conditions: log value from radioligand binding; cited from earlier work
[2] = test system: D2R; conditions: in the presence of µM concentrations of DA; pre-incubation protocols; cited from earlier work
[3] = test system: D2R V91A; parameters: method as in PMID 29325769; conditions: log values from pERK assay; cited from earlier work
[4] = test system: D2R S194A; parameters: method as in PMID 29325769; conditions: log values from pERK assay; cited from earlier work
[5] = test system: D2R S193A; parameters: method as in PMID 29325769; conditions: log value from radioligand binding; cited from earlier work
[6] = test system: WT D2R; parameters: method as in PMID 29325769; conditions: log values from pERK assay; cited from earlier work
[7] = biological target: T1, GIRK1/4 (Homo sapiens, UniProt P48544+P48549); assay: Control: direct inhibition of GIRK currents in oocytes expressing GIRK1/4 in the absence of the D2R
T1 sequence (P48549 1-501): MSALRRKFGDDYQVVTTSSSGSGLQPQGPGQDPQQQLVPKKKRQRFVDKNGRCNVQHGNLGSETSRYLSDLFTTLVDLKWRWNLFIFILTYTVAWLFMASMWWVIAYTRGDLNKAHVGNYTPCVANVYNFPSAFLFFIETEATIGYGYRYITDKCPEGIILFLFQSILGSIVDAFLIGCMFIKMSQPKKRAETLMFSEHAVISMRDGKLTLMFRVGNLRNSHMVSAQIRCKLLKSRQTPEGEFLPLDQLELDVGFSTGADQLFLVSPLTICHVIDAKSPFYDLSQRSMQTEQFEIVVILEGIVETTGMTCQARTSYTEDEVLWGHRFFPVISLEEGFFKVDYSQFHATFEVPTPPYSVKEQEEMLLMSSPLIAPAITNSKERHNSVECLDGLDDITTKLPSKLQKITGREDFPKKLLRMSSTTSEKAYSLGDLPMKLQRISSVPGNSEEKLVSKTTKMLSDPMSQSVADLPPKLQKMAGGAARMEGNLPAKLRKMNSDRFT
T1 sequence (P48544 1-419): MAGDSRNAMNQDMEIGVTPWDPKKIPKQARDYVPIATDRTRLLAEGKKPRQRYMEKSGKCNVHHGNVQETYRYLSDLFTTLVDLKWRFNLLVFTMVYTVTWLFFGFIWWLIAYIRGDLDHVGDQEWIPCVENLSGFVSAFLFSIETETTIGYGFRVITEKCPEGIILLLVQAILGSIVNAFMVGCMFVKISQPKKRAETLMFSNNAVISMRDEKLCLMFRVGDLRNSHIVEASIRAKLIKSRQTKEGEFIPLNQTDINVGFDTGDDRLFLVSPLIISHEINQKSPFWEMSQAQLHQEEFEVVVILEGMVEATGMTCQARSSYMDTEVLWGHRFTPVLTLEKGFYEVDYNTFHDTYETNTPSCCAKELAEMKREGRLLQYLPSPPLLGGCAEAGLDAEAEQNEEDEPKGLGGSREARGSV

[8] = test system: D2R E95A; parameters: method as in PMID 29325769; conditions: log values from pERK assay; cited from earlier work
[9] = test system: D2R L94A; parameters: method as in PMID 29325769; conditions: log values from pERK assay; cited from earlier work

For N#Cc1ccc2c(c1)CN(CC[C@H]1CC[C@H](NC(=O)c3cc4ccccc4[nH]3)CC1)CC2 [SB269,652, N-((trans)-4-(2-(7-cyano-3,4-dihydroisoquinolin-2(1H)-yl)ethyl)cyclohexyl)-1H-indole-2-carboxamide], the “Negative Cooperativity of SB269,652 Interaction with DA” value (“Negative Cooperativity” for short) [1] is given as 0.54 ± 0.11, the “SB269,652 IC50 at the D2R in previous reports” value [2] is given as “high nM range” and the “Negative Cooperativity” value [3] is given as “↓ 0.48 ± 0.16”. For the same compound, the “Negative Cooperativity” value [4] was “↓ 0.52 ± 0.09”, the “Negative Cooperativity” value [5] was “↑ (1.47 ± 0.15 *) ^b” and the “Negative Cooperativity” value [6] was 1.23 ± 0.14. The “Ligand-mediated direct inhibition of GIRK currents (>10%)” value [7] was “not observed”, the “Negative Cooperativity” value [8] was “↓ 0.32 ± 0.14” and the “Negative Cooperativity” value [9] was “↓ 0.70 ± 0.08”.
